Test results taken from patent US8901118B2, “Compounds and methods for kinase modulation, and indications therefor” (Plexxikon Inc., priority 2010, dated 2014).
pIC50: −log10 of the molar value.

Legend:
[1] = tested on: MV-4-11 cells; test: MV-4-11 (leukemia) cell proliferation assay (ATPlite); assay type: cell-based; conditions: Homo sapiens, MV4-11, read-out: Inhibition of Cell Proliferation IC50, MV-4-11
Experimental: Compounds are assessed in a variety of cell based assays. For example BaF3 cells engineered with any of BCR-FMS, BCR-KIT, BCR-FLT3, BCR-NTRK1, BCR-NTRK2, and BCR-NTRK3, are used in cell proliferation assays to assess inhibitory activity of Fms, Kit, Flt-3, TrkA, TrkB, and TrkC, respectively. An MV-4-11 (leukemia) cell proliferation assay is used to assess inhibitory activity in Flt-3, and SKNSH (human neuroblastoma) cell proliferation assay is used to assess efficacy of Fms/Trk inhibitors. Additional cells may be assayed similarly to assess the efficacy of Fms/Trk inhibitors, such as MiaPaCa (human pancreatic cancer) and Capan-1 (human pancreatic carcinoma) cells. Reagent and assay conditions are as follows: • BaF3 cells: • Maintained in RPMI containing 10% FBS, 1% PenStrep, 1% NEAA, and 1% L-Glutamine, supplemented with 1 mg/mL G418 and 5% WEHI-CM (or recombinant murine IL-3). • Confluent cells are split 1:50 to 1:100 every 3-4 days. • MV-4-11 cells: • Maintained in Iscove's Modified Dulbecco's Medium containing 10% FBS. • Confluent cells are split 1:4 every 3-4 days. • SKNSH cells: RPMI containing 10% FBS. On day 1, cells are counted, then centrifuged in a conical tube for 5 minutes at 1000 rpm. The supernatant is removed and cells are re-suspended as follows: • BaF3: resuspend in growth media +1 mg/mL G418 (without WEHFIL-3) to 2×10^5 cells/mL. • MV-4-11: resuspend in growth media to 5×10^5 cells/mL. • SKNSH: resuspend in growth media to 2×10^4 cells/mL. The cells are plated (50 μL, 150 μL for SKNSH cells) in each well of a 96-well dish (Corning 3610) and incubated at 37° C. in 5% CO2 overnight, cells plated to a final concentration of cells as follows: • BaF3: 10,000 cells per well. • MV-4-11: 25,000 cells per well. • SKNSH: 3,000 cells per well. On day 2, compound at a maximum concentration of 5 mM is serially diluted 1:3 for a total of 8 point titration with DMSO as a control. A 1 μL aliquot of each dilution point is added to 249 μL growth media and 50 μL is added to a well containing cells, providing 10 μM compound for the maximum concentration point. The cells are incubated for 3 days at 37° C. in 5% CO2. For SKNSH cells, a 0.75 μL aliquot of appropriate dilution in DMSO is added to 150 μL of cells. On day 5, ATPlite 1 step Luminescence Assay System (Perkin Elmer #6016739) is brought to room temperature along with the cell cultures. ATPlite is added to each well as follows: • BaF3: 25 μL per well. • MV-4-11: 40 μL per well. • SKNSH: 20 μL per well. The cells are incubated at room temperature for 10 minutes, then luminescence is read on Safire reader. The measured luminescence correlates directly with cell number, such that the reading as a function of compound concentration is used to determine the IC50 value.
It is understood that the results of these assays may vary as assay conditions are varied. Inhibition levels determined under the conditions described herein represent a relative activity for the compounds tested under the specific conditions employed. The cell based assays are likely to show variability due to the complexity of the system and the sensitivity thereof to any changes in the assay conditions. […] Results for compounds that are tested and show substantially no inhibition below the highest tested concentration are represented as “-” in the tables below. In some instances, the compounds were not tested in all of the assays, or assay results were not valid, as indicated by NA in the tables below.

[2] = molecular target: CYP3A4(BQ) (Homo sapiens, UniProt P08684); test: CYP3A4(BQ) inhibition; assay type: in vitro ADME; conditions: CYP3A4, substrate BQ; read-out: Cyp IC50 3A4(BQ)
Outline: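 After 30 min incubation at 37° C, plates were read on a Tecan Safire 2 at 409 ex/460 em, and IC50 values came from signal plotted against compound concentration. Enzyme and substrate were sourced from BD Biosciences. The cofactor mix held 1.3% NADPH Regeneration system Solution A, 1.04% Solution B, 5% acetonitrile and 0.05% DMSO.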

Chain of CYP3A4(BQ) (P08684 whole entry): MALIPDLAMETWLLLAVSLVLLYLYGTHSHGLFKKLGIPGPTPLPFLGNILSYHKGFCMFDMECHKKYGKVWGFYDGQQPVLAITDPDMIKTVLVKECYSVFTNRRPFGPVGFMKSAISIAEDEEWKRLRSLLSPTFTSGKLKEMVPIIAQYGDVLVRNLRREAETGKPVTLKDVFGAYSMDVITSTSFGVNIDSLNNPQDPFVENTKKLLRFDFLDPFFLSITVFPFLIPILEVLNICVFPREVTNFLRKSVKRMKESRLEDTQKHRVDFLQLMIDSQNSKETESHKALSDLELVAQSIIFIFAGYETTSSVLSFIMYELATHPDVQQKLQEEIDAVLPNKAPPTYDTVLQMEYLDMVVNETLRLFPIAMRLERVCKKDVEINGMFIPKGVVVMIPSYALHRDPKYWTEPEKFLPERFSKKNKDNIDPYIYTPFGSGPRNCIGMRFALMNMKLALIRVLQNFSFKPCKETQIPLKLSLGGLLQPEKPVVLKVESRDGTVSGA

Compound	pIC50 [1]	pIC50 [2]
COc1ccc(Nc2ccc(Cc3c[nH]c4ncc(C)cc34)c(F)n2)cn1 [Compound P-3019, [6-fluoro-5-(5-methyl-1H-pyrrolo[2,3-b]pyridin-3-ylmethyl)-pyridin-2-yl]-(6-methoxy-pyridin-3-yl)-amine]	> 6.00	< 5.00
CCc1ccc(Nc2ccc(Cc3c[nH]c4ncnc(OC)c34)c(F)n2)cn1 [Compound P-4007, (6-Ethyl-pyridin-3-yl)-[6-fluoro-5-(4-methoxy-7H-pyrrolo[2,3-d]pyrimidin-5-ylmethyl)-pyridin-2-yl]-amine]	> 6.00	< 5.00
CCOc1ccc(Nc2ccc(Cc3c[nH]c4ncnc(OC)c34)c(F)n2)cn1 [Compound P-4005, (6-Ethoxy-pyridin-3-yl)-[6-fluoro-5-(4-methoxy-7H-pyrrolo[2,3-d]pyrimidin-5-ylmethyl)-pyridin-2-yl]-amine]	> 6.00	< 5.00
CCn1cc(Nc2ccc(Cc3c[nH]c4ncnc(OC)c34)c(F)n2)cn1 [Compound P-4011, (1-Ethyl-1H-pyrazol-4-yl)-[6-fluoro-5-(4-methoxy-7H-pyrrolo[2,3-d]pyrimidin-5-ylmethyl)-pyridin-2-yl]-amine]	> 6.00	< 5.00
CCOc1ncnc2[nH]cc(Cc3ccc(Nc4cnn(CC)c4)nc3F)c12 [Compound P-4012, [5-(4-Ethoxy-7H-pyrrolo[2,3-d]pyrimidin-5-ylmethyl)-6-fluoro-pyridin-2-yl]-(1-ethyl-1H-pyrazol-4-yl)-amine]	> 6.00	< 5.00
CCn1cc(Nc2ccc(Cc3c[nH]c4ncnc(C)c34)c(F)n2)cn1 [Compound P-4013, (1-Ethyl-1H-pyrazol-4-yl)-[6-fluoro-5-(4-methyl-7H-pyrrolo[2,3-d]pyrimidin-5-ylmethyl)-pyridin-2-yl]-amine]	> 6.00	< 5.00
COCCOc1ncnc2[nH]cc(Cc3ccc(Nc4ccc(OC)nc4)nc3F)c12 [Compound P-4019, {6-Fluoro-5-[4-(2-methoxy-ethoxy)-7H-pyrrolo[2,3-d]pyrimidin-5-ylmethyl]-pyridin-2-yl}-(6-methoxy-pyridin-3-yl)-amine]	> 6.00	< 5.00
COc1ncnc2[nH]cc(Cc3ccc(Nc4ccc(Cl)nc4)nc3F)c12 [Compound P-4003, (6-Chloro-pyridin-3-yl)-[6-fluoro-5-(4-methoxy-7H-pyrrolo[2,3-d]pyrimidin-5-ylmethyl)-pyridin-2-yl]-amine]	> 6.00	< 5.00
CCOc1ncnc2[nH]cc(Cc3ccc(Nc4ccc(C)nc4)nc3F)c12 [Compound P-4017, [5-(4-Ethoxy-7H-pyrrolo[2,3-d]pyrimidin-5-ylmethyl)-6-fluoro-pyridin-2-yl]-(6-methyl-pyridin-3-yl)-amine]	> 6.00	< 5.00
FC1(F)CCC(Nc2ncc(Cc3c[nH]c4ncc(Cl)cc34)cn2)CC1 [Compound P-3004]	> 5.00	< 5.00
Cc1cnc2[nH]cc(Cc3cnc(Nc4cc(OC(C)C)n[nH]4)nc3)c2c1 [Compound P-3038, (5-Isopropoxy-2H-pyrazol-3-yl)-[5-(5-methyl-1H-pyrrolo[2,3-b]pyridin-3-ylmethyl)-pyrimidin-2-yl]-amine]	< 6.00	

Further lines, results first:

pIC50 [1]	pIC50 [2]	Compound
> 6.00		CCn1ccc(Nc2ncc(Cc3c[nH]c4ncc(C)cc34)cn2)n1 [Compound P-3035, (1-Ethyl-1H-pyrazol-3-yl)-[5-(5-methyl-1H-pyrrolo[2,3-b]pyridin-3-ylmethyl)-pyrimidin-2-yl]-amine]
> 6.00		COc1cc(Nc2ncc(Cc3c[nH]c4ncc(C)cc34)cn2)ccc1F [Compound P-3022, (4-Fluoro-3-methoxy-phenyl)-[5-(5-methyl-1H-pyrrolo[2,3-b]pyridin-3-ylmethyl)-pyrimidin-2-yl]-amine]
> 6.00	< 5.00	COc1ncnc2[nH]cc(Cc3ccc(Nc4ccc(C5CC5)nc4)nc3F)c12 [Compound P-4004, (6-Cyclopropyl-pyridin-3-yl)-[6-fluoro-5-(4-methoxy-7H-pyrrolo[2,3-d]pyrimidin-5-ylmethyl)-pyridin-2-yl]-amine]
> 6.00	< 5.00	COc1ncnc2[nH]cc(Cc3ccc(Nc4ccc(C)nc4)nc3F)c12 [Compound P-4010, [6-Fluoro-5-(4-methoxy-7H-pyrrolo[2,3-d]pyrimidin-5-ylmethyl)-pyridin-2-yl]-(6-methyl-pyridin-3-yl)-amine]
> 6.00	< 5.00	COCCOc1ncnc2[nH]cc(Cc3ccc(Nc4ccc(C)nc4)nc3F)c12 [Compound P-4015, {6-Fluoro-5-[4-(2-methoxy-ethoxy)-7H-pyrrolo[2,3-d]pyrimidin-5-ylmethyl]-pyridin-2-yl}-(6-methyl-pyridin-3-yl)-amine]
> 8.00		CCOc1ccc(Nc2ncc(Cc3c[nH]c4ncc(C)cc34)cn2)cn1 [Compound P-3027, (6-Ethoxy-pyridin-3-yl)-[5-(5-methyl-1H-pyrrolo[2,3-b]pyridin-3-ylmethyl)-pyrimidin-2-yl]-amine]
> 6.00		CCOc1ccc(Nc2ccc(Cc3c[nH]c4ncc(C)cc34)c(F)n2)cn1 [Compound P-3039, (6-ethoxy-pyridin-3-yl)-[6-fluoro-5-(5-methyl-1H-pyrrolo[2,3-b]pyridin-3-ylmethyl)-pyridin-2-yl]-amine]
> 6.00		COc1ccc(Nc2ccc(Cc3c[nH]c4ncnc(OC)c34)c(F)n2)cn1 [Compound P-4001, [6-Fluoro-5-(4-methoxy-7H-pyrrolo[2,3-d]pyrimidin-5-ylmethyl)-pyridin-2-yl]-(6-methoxy-pyridin-3-yl)-amine]
> 7.00	< 5.00	CCOc1ccc(Nc2ccc(Cc3c[nH]c4ncnc(C)c34)c(F)n2)cn1 [Compound P-4006, (6-Ethoxy-pyridin-3-yl)-[6-fluoro-5-(4-methyl-7H-pyrrolo[2,3-d]pyrimidin-5-ylmethyl)-pyridin-2-yl]-amine]
> 8.00	< 5.00	Cc1cnc2[nH]cc(Cc3cnc(Nc4ccc(C(F)(F)F)nc4)nc3)c2c1 [Compound P-3018, [5-(5-Methyl-1H-pyrrolo[2,3-b]pyridin-3-ylmethyl)-pyrimidin-2-yl]-(6-trifluoromethyl-pyridin-3-yl)-amine]
> 7.00		COc1ccc(Nc2ncc(Cc3c[nH]c4ncc(C)cc34)cn2)cc1F [Compound P-3023, (3-Fluoro-4-methoxy-phenyl)-[5-(5-methyl-1H-pyrrolo[2,3-b]pyridin-3-ylmethyl)-pyrimidin-2-yl]-amine]
> 7.00		COc1ccc(Nc2ncc(Cc3c[nH]c4ncc(C)cc34)cn2)cn1 [Compound P-3020, (6-Methoxy-pyridin-3-yl)-[5-(5-methyl-1H-pyrrolo[2,3-b]pyridin-3-ylmethyl)-pyrimidin-2-yl]-amine]
> 7.00	< 5.00	CCOc1ccc(Nc2ccc(Cc3c[nH]c4ncnc(OCCOC)c34)c(F)n2)cn1 [Compound P-4008, (6-Ethoxy-pyridin-3-yl)-{6-fluoro-5-[4-(2-methoxy-ethoxy)-7H-pyrrolo[2,3-d]pyrimidin-5-ylmethyl]-pyridin-2-yl}-amine]
> 7.00		CCn1cc(Nc2ncc(Cc3c[nH]c4ncc(C)cc34)cn2)cn1 [Compound P-3036, (1-Ethyl-1H-pyrazol-4-yl)-[5-(5-methyl-1H-pyrrolo[2,3-b]pyridin-3-ylmethyl)-pyrimidin-2-yl]-amine]
